Measured values: PubChem BioAssay (NCI)
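GI50 marks 50% less growth. At the TGI there is no net growth.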

Legend:
Experiment in all cases: DTP human tumour cell line panel, 384-well format
786-0 renal = system: 786-0 renal
A498 renal = system: A498 renal
A549 NSCLC = system: A549 NSCLC
ACHN renal = system: ACHN renal
BT-549 breast = system: BT-549 breast
CAKI-1 renal = system: CAKI-1 renal
CCRF-CEM leukemia = system: CCRF-CEM leukemia
COLO 205 colon = system: COLO 205 colon
DU-145 prostate = system: DU-145 prostate
EKVX NSCLC = system: EKVX NSCLC
HCC-2998 colon = system: HCC-2998 colon
HCT-116 colon = system: HCT-116 colon
HCT-15 colon = system: HCT-15 colon
HL-60(TB) leukemia = system: HL-60(TB) leukemia
HOP-62 NSCLC = system: HOP-62 NSCLC
HOP-92 NSCLC = system: HOP-92 NSCLC
HS 578T breast = system: HS 578T breast
HT29 colon = system: HT29 colon
IGROV1 ovarian = system: IGROV1 ovarian
K-562 leukemia = system: K-562 leukemia
KM12 colon = system: KM12 colon
LOX IMVI melanoma = system: LOX IMVI melanoma
M14 melanoma = system: M14 melanoma
MALME-3M melanoma = system: MALME-3M melanoma
MCF7 breast = system: MCF7 breast
MDA-MB-231 breast = system: MDA-MB-231 breast
MDA-MB-435 melanoma = system: MDA-MB-435 melanoma
MDA-MB-468 breast = system: MDA-MB-468 breast
MOLT-4 leukemia = system: MOLT-4 leukemia
NCI-H226 lung = system: NCI-H226 lung
NCI-H23 lung = system: NCI-H23 lung
NCI-H322M lung = system: NCI-H322M lung
NCI-H460 NSCLC = system: NCI-H460 NSCLC
NCI-H522 lung = system: NCI-H522 lung
NCI/ADR-RES ovarian = system: NCI/ADR-RES ovarian
OVCAR-3 ovarian = system: OVCAR-3 ovarian
OVCAR-4 ovarian = system: OVCAR-4 ovarian
OVCAR-5 ovarian = system: OVCAR-5 ovarian
OVCAR-8 ovarian = system: OVCAR-8 ovarian
PC-3 prostate = system: PC-3 prostate
RPMI-8226 leukemia = system: RPMI-8226 leukemia
RXF 393 renal = system: RXF 393 renal
SF-268 CNS = system: SF-268 CNS
SF-295 CNS = system: SF-295 CNS
SF-539 CNS = system: SF-539 CNS
SK-MEL-28 melanoma = system: SK-MEL-28 melanoma
SK-MEL-5 melanoma = system: SK-MEL-5 melanoma
SK-OV-3 ovarian = system: SK-OV-3 ovarian
SN12C renal = system: SN12C renal
SNB-19 CNS = system: SNB-19 CNS
SNB-75 CNS = system: SNB-75 CNS
SW-620 colon = system: SW-620 colon
T-47D breast = system: T-47D breast
TK-10 renal = system: TK-10 renal
U251 glioblastoma = system: U251 glioblastoma
UACC-257 melanoma = system: UACC-257 melanoma
UACC-62 melanoma = system: UACC-62 melanoma
UO-31 renal = system: UO-31 renal

## CN1CCN(CCOc2cc(OC3CCOCC3)c3c(Nc4c(Cl)ccc5c4OCO5)ncnc3c2)CC1
786-0 renal
  GI50: 0.943 µM
  TGI: 15.2 µM
A498 renal
  GI50: 1.95 µM
  TGI: 12.6 µM
A549 NSCLC
  GI50: 1.45 µM
  TGI: 17.9 µM
ACHN renal
  GI50: 0.317 µM
  TGI: 12.6 µM
BT-549 breast
  GI50: 2.77 µM
  TGI: 16.2 µM
CAKI-1 renal
  GI50: 0.514 µM
  TGI: 13.6 µM
CCRF-CEM leukemia
  GI50: 14.3 µM
  TGI: 27.4 µM
COLO 205 colon
  GI50: 14.9 µM
  TGI: 28.1 µM
DU-145 prostate
  GI50: 5.09 µM
  TGI: 18.7 µM
EKVX NSCLC
  GI50: 0.552 µM
  TGI: 11.9 µM
HCC-2998 colon
  GI50: 5.25 µM
  TGI: 19 µM
HCT-116 colon
  GI50: 10.7 µM
  TGI: 22.5 µM
HCT-15 colon
  GI50: 3.68 µM
  TGI: 18.9 µM
HL-60(TB) leukemia
  GI50: 22.3 µM
  TGI: 36.8 µM
HOP-62 NSCLC
  GI50: 6.29 µM
  TGI: 19.7 µM
HOP-92 NSCLC
  GI50: 2.33 µM
  TGI: 17.4 µM
HS 578T breast
  GI50: 0.387 µM
  TGI: 4.35 µM
HT29 colon
  GI50: 1.43 µM
  TGI: 8.86 µM
IGROV1 ovarian
  GI50: 0.0603 µM
  TGI: 0.295 µM
K-562 leukemia
  GI50: 0.132 µM
  TGI: 0.306 µM
KM12 colon
  GI50: 0.658 µM
  TGI: 14 µM
LOX IMVI melanoma
  GI50: 0.448 µM
  TGI: 7 µM
M14 melanoma
  GI50: 15.2 µM
  TGI: 28.6 µM
MALME-3M melanoma
  GI50: 14.1 µM
  TGI: 27.1 µM
MCF7 breast
  GI50: 9.74 µM
  TGI: 21.7 µM
MDA-MB-231 breast
  GI50: 2.83 µM
  TGI: 17.6 µM
MDA-MB-435 melanoma
  GI50: 16.2 µM
  TGI: 29.8 µM
MDA-MB-468 breast
  GI50: 0.403 µM
  TGI: 1.95 µM
MOLT-4 leukemia
  GI50: 8.27 µM
  TGI: 21.2 µM
NCI-H226 lung
  GI50: 12.5 µM
  TGI: 26.6 µM
NCI-H23 lung
  GI50: 5.77 µM
  TGI: 20.9 µM
NCI-H322M lung
  GI50: 0.387 µM
  TGI: 10.3 µM
NCI-H460 NSCLC
  GI50: 12.7 µM
  TGI: 25.5 µM
NCI-H522 lung
  GI50: 0.179 µM
  TGI: 10.7 µM
NCI/ADR-RES ovarian
  GI50: 10.6 µM
  TGI: 23.8 µM
OVCAR-3 ovarian
  GI50: 1.14 µM
  TGI: 16.8 µM
OVCAR-4 ovarian
  GI50: 13 µM
  TGI: 26.1 µM
OVCAR-5 ovarian
  GI50: 0.679 µM
  TGI: 12 µM
OVCAR-8 ovarian
  GI50: 8.72 µM
  TGI: 21.3 µM
PC-3 prostate
  GI50: 14.1 µM
  TGI: 35 µM
RPMI-8226 leukemia
  GI50: 14.4 µM
  TGI: 27.5 µM
RXF 393 renal
  GI50: 0.215 µM
  TGI: 2.94 µM
SF-268 CNS
  GI50: 0.55 µM
  TGI: 3.18 µM
SF-295 CNS
  GI50: 11.4 µM
  TGI: 23.5 µM
SF-539 CNS
  GI50: 10.7 µM
  TGI: 22.6 µM
SK-MEL-28 melanoma
  GI50: 14.7 µM
  TGI: 27.9 µM
SK-MEL-5 melanoma
  GI50: 10.8 µM
  TGI: 22.8 µM
SK-OV-3 ovarian
  GI50: 0.317 µM
  TGI: 13 µM
SN12C renal
  GI50: 0.377 µM
  TGI: 12.8 µM
SNB-19 CNS
  GI50: 9.59 µM
  TGI: 29 µM
SNB-75 CNS
  GI50: 0.233 µM
  TGI: 0.835 µM
SW-620 colon
  GI50: 19.3 µM
  TGI: 33.5 µM
T-47D breast
  GI50: 0.171 µM
  TGI: 3.06 µM
TK-10 renal
  GI50: 1.67 µM
  TGI: 5.54 µM
U251 glioblastoma
  GI50: 6.67 µM
  TGI: 19.9 µM
UACC-257 melanoma
  GI50: 2.53 µM
  TGI: 10.5 µM
UACC-62 melanoma
  GI50: 14.1 µM
  TGI: 27.1 µM
UO-31 renal
  GI50: 0.446 µM
  TGI: 15.4 µM
